Reference: patent US20070078085A1, “Methods and compositions for the utilization and targeting of osteomimicry” (priority 2004, published 2007)
d = 2'-deoxy (DNA)

Assays:
hBSP promoter = assay: hBSP promoter-luciferase reporter activity in transfected cells; type: cell-based, human; settings: C4-2B cells; db cAMP 10^−6 to 10^−3 M, FSK 10^−8 to 10^−5 M; 16 h; concentration-dependent
Description: Plasmid Construction. Genomic DNA was used in the PCR of the 0.8-kb hOC promoter inserting KpnI and XhoI sites, subsequently cloned into pGL3-Basic-luciferase reporter vector (Promega, Madison, Wis.) as described before (9). The deletion constructs, ΔA [374 bp upstream of AP1/VDRE (AV) element], ΔTst-1 (POU-factor Tst-1/Oct-6 binding site), ΔCRE (cAMP-responsive element) and ΔIRF-1 (interferon regulatory factor-i binding site) in hOC promoter/pGL3 were generated by recombinant PCR technique. The point mutation plasmids in CRE (from -643 to -636 in hOC promoter, 5′-[…]-3′) were constructed with a QuikChange Site-Directed Mutagenesis Kit (Stratagene). […]
Transfection and Luciferase Activity Assay. […] For luciferase activity assay, 20 μl of the lysate supernatant was mixed with 100 μl of the luciferase substrate (Promega) and detected by a luminometer (Monolight 3010, luminometer PharMingen, San Diego, Calif.). For β-galactosidase activity assay, 100 μl of the supernatant was mixed with 100 μl of 2×β-galactosidase substrate [200 mM sodium phosphate buffer, pH 7.3, 2 mM MgCl2, 100 mM β-mercaptoethanol and 1.33 mg/ml o-nitrophenyl-β-D-galactopyranoside (ONPG)], and incubated at 37° C. for 30 min. β-galactosidase activity was detected by Microplate spectrophotometer (Molecular Devices Corp., Sunnyvale, Calif.) at 405 nm wavelength. […]

hOC promoter = assay: hOC promoter-luciferase reporter activity in transfected cells; type: cell-based, human; settings: C4-2B cells, 16 h
Description: Plasmid Construction. Genomic DNA was used in the PCR of the 0.8-kb hOC promoter inserting KpnI and XhoI sites, subsequently cloned into pGL3-Basic-luciferase reporter vector (Promega, Madison, Wis.) as described before (9). The deletion constructs, ΔA [374 bp upstream of AP1/VDRE (AV) element], ΔTst-1 (POU-factor Tst-1/Oct-6 binding site), ΔCRE (cAMP-responsive element) and ΔIRF-1 (interferon regulatory factor-i binding site) in hOC promoter/pGL3 were generated by recombinant PCR technique. The point mutation plasmids in CRE (from -643 to -636 in hOC promoter, 5′-[…]-3′) were constructed with a QuikChange Site-Directed Mutagenesis Kit (Stratagene). The mutation constructs (see below) are one-point substitution mutants, Mut1 (-642 G→T), Mut2 (-641 A→C), Mut3 (-640 C→A), Mut4 (-639 C→A) and Mut5 (-638 T→G), a two-point substitution mutant, Mut6 (-640 and -639 CC→AA), and a two-point deletion construct, Mut7 (-640 and -639 CC→XX). The 1.5-kb hBSP promoter construct prepared in the pGL3-luciferase reporter vector has been described previously (36). The single deletion constructs ΔCRE1 (-79 to -72) and ΔCRE2 (-674 to -667), and a double deletion construct ΔCRE2/CRE1 in the hBSP promoter/pGL3-luciferase plasmid were generated by recombinant PCR technique. All plasmid constructs were confirmed by DNA sequencing.
Transfection and Luciferase Activity Assay. Cells were trypsinized and seeded at a density of 1.5×10^5 cells/well (LNCaP, C4-2B, DU145 and ARCaP) and 1.0×10^5 cells/well (PC3 and MG63) in 12-well plates 24 h before transfection. Plasmid DNAs were introduced into cells by complexing with a commercial reagent DOTAP (Roche Molecular Biochemicals) according to the manufacturer's protocol. Each transfection reaction contained 1.25 μg of tested DNA constructs and 0.25 μg of the transfection efficiency control CMV promoter-driven β-galactosidase plasmid DNA. After 6 h transfection, DNA-liposome mixtures were replaced by fresh T-medium or CM. Tansfected cells were harvested and lysed in 1× Reporter Lysis buffer (Promega) after 36 h additional incubation. Cell lysates were vortexed for 15 s and spun for 10 min. For luciferase activity assay, 20 μl of the lysate supernatant was mixed with 100 μl of the luciferase substrate (Promega) and detected by a luminometer (Monolight 3010, luminometer PharMingen, San Diego, Calif.). For β-galactosidase activity assay, 100 μl of the supernatant was mixed with 100 μl of 2×β-galactosidase substrate [200 mM sodium phosphate buffer, pH 7.3, 2 mM MgCl2, 100 mM β-mercaptoethanol and 1.33 mg/ml o-nitrophenyl-β-D-galactopyranoside (ONPG)], and incubated at 37° C. for 30 min. β-galactosidase activity was detected by Microplate spectrophotometer (Molecular Devices Corp., Sunnyvale, Calif.) at 405 nm wavelength. Data were presented as normalized luciferase activity (means±standard deviations), defined as luciferase activity normalized to internal control β-galactosidase activity for transfection efficiency. All studies were performed in three independent experiments with duplicate assays.

b2M = b2M expression in C4-2B clones after siRNA; type: cell-based, human; settings: Neo and b2M-overexpressed C4-2B clones
Protocol: Total RNA was isolated from the confluent monolayer of cells using RNAZol B (Teltest Inc., Friendswood, Tex.). The total RNA was used as template for RT according to the manufacturer's instruction (Invitrogen). […] RT-PCR products were analyzed by 1.2% agarose gel electrophoresis.
(§1) Western blotting was performed using the NOVEX system (Invitrogen). […] Detection of protein bands was performed with ECL Western Boltting Detection Reagents (Amersham Biosciences Corp.).
The β2M- and control scramble-siRNA sequences were 5′-[…](dT)(dT)-3′ and 5′-[…](dT)(dT)-3′, respectively. For RNA delivery system, we used cationic liposome formulation, termed SN {Zou, 2002#68} to deliver β2M- and scramble-siRNA into cell lines or mice. The ratio of siRNA (μg) to SN (μl) was 1:24. […] To assay of anti-tumor activity of β2M-siRNA therapeutic efficacy, the real-time bioluminescence image by the CCD camera cryogenically cooled IVIS system with analysis software (Xenogen Corp., Alameda Calif.) (Ref) and serum PSA levels were used to monitored PC3-Luc and C4-2 tumor burden in nude mice.

C4-2-Luc tumor = assay: Subcutaneous bone powder C4-2-Luc tumors, intratumoral siRNA-liposome, serum PSA; type: in vivo, athymic nu/nu mice; settings: intratumoral 0.8 μg siRNA three-time per week, four weeks, 28 days
Description: (§2) The β2M- and control scramble-siRNA sequences were 5′-[…](dT)(dT)-3′ and 5′-[…](dT)(dT)-3′, respectively. For RNA delivery system, we used cationic liposome formulation, termed SN {Zou, 2002#68} to deliver β2M- and scramble-siRNA into cell lines or mice. The ratio of siRNA (μg) to SN (μl) was 1:24. To test prostate tumor growth inhibition by β2M-siRNA, four weeks old male athymic nu/nu mice were inoculated into the subcutaneous space of the chest regions with 2×10^6 cells of PC3-Luc or C4-2 mixed with 20 mg of bone powder (kindly provided by Dr. A. H. Reddi, University of California, Davis, Sacramento, Calif.) and 35 μl of Matrigel matrix (BD Bioscience, Bedford Mass.), respectively. Three (PC3-Luc) or four (C4-2) weeks later, the tumor-bearing mice were randomly divided into two groups. The mice in the treatment group received intratumoral injection of SN-β2M-siRNA for three-time per week continuously four weeks, at a dose of 0.8 μg of siRNA mixed with 19.2 μl of SN for each mouse. The control group injected with the same dose of SN-scramble-siRNA. To assay of anti-tumor activity of β2M-siRNA therapeutic efficacy, the real-time bioluminescence image by the CCD camera cryogenically cooled IVIS system with analysis software (Xenogen Corp., Alameda Calif.) (Ref) and serum PSA levels were used to monitored PC3-Luc and C4-2 tumor burden in nude mice.

PC3-Luc tumor = assay: Subcutaneous bone powder PC3-Luc tumors, intratumoral siRNA-liposome, bioluminescence imaging; type: in vivo, athymic nu/nu mice; settings: intratumoral 0.8 μg siRNA three-time per week, four weeks, 28 days
Description: as §2

[1] = test system: human prostate cancer cell lines; assay: In vitro cell proliferation assay, prostate cancer cells; type: cell-based; settings: for cell proliferation: Neo and b2M-overexpressed C4-2B clones, siRNA
Protocol: LNCaP, C4-2B, DU145, PC3, MG63 and ARCaP cell lines were seeded in 96-well plates in T-medium containing 5% FBS, respectively. After 24 h incubation, media were replaced by fresh, serum-free T-medium and incubated for an additional 24 h. […] Cell numbers were measured every 24 h using CellTiter 96® AQueous One Solution Cell Proliferation Assay (Promega, Madison, Wis.).

PSA = assay: Western blot of PSA in siRNA-infected C4-2B cells; type: cell-based, human; settings: retrovirally infected C4-2B cells
Protocol: (§3) FIG. 14. Western blot analysis of parental C4-2B (P), b2M-siRNA (siRNA) and scramble-siRNA (Scramble) retrovirally infected cells. Note AR and PSA expression were abolished by b2M-siRNA in C4-2B cells. EFIa was used as loading control.
as §1

AR = assay: Western blot of AR in siRNA-infected C4-2B cells; type: cell-based, human; settings: retrovirally infected C4-2B cells
Protocol: as §3, §1

C4-2B cells = assay: Adhesion assay on ECM-coated 96-well plates; type: cell-based, human; settings: β2M siRNA vs scramble siRNA
Description: FIG. 13. Adhesion assay of b2M-siRNA and scramble-siRNA infected C4-2B cells using 96-well plate pre-coated with Col I, LM, FN and Col IV. BSA was used as control (Con). *, p<0.05, **, p<0.005.
Cell attachment to BSA coated wells served as an internal control (Con).

OC mRNA = assay: Semi-quantitative RT-PCR of endogenous OC mRNA; type: cell-based, human; settings: FSK 10^−6 M, 12 h
Protocol: (§4) Reverse Transcription-Polymerase Chain Reaction (RT-PCR) Analysis. Total RNA was isolated from confluent monolayers of cells using RNAZol B (Teltest Inc., Friendswood, Tex.). Five μg of total RNA was used as template and 0.15 μg of random hexanucleotide primers were added for reverse transcription and amplification in a reaction volume of 20 μl, according to the manufacturer's instruction (Invitrogen, Carlsbad, Calif.). After RT reaction, 3-5 μl of the 1st-strand cDNA was used for PCR with a PTC-100 programmable Thermal Controller (MJ Research Inc.). The oligonucleotide primer sets used for PCR analysis of cDNA are: hOC, 5′-[…]-3′ (forward) and 5′-[…]-3′ (reverse); hBSP, 5′-[…]-3′ (forward) and 5′-[…]-3′ (reverse); and glyceraldehyde phosphate dehydrogenase (GAPDH), 5′-[…]-3′ (forward) and 5′-[…]-3′ (reverse), respectively. The thermal profile for hOC amplification is 30 cycles starting with denaturation 1 min at 94° C., followed by 1 min of annealing at 55° C. and 1 min of extension at 72° C. For hBSP amplification the thermal profile is 35 cycles starting with denaturation 1 min at 94° C., followed by 30 s of annealing at 48° C. and 40 s of extension at 72° C. The program for GAPDH amplification is 25 cycles starting with denaturation 30 s at 94° C., followed by 30 s of annealing at 60° C. and 1 min of extension at 72° C. The RT-PCR products were analyzed by 1.2% agarose gel electrophoresis. Quantity one-4.1.1 Gel Doc gel documentation software (Bio-Rad) or NIH image were used for quantification of hOC and hBSP mRNA expression normalized by GAPDH mRNA expression.

BSP mRNA = assay: Semi-quantitative RT-PCR of endogenous BSP mRNA; type: cell-based, human; settings: FSK 10^−6 M, 12 h
Protocol: as §4

In the case of `CCCC(=O)Nc1ncnc2c1ncn2[C@@H]1O[C@@H]2COP(=O)(O)O[C@H]2[C@H]1OC(=O)CCC` [db cAMP, dibutyryl 3′,5′-cyclic AMP], the “hBSP promoter activity, effect of PKA pathway activators” value (hBSP promoter) was “stimulated” and the “hOC promoter activity, effect of PKA pathway activators” value (hOC promoter; db cAMP 10^−6 to 10^−3 M, FSK 10^−8 to 10^−5 M, concentration-dependent) was “stimulated”.

In the case of “5′-UUCAUGUGUCUGUGGUGUU(dT)(dT)-3′ (siRNA; RNA, 3' dTdT, backbone not given here; scramble control, delivered in cationic liposome formulation SN) [scramble-siRNA]”, the b2M expression (b2M) was “did not affect”, the “growth of pre-established C4-2-Luc tumors, serum PSA” value (C4-2-Luc tumor) was “not” and the “growth of pre-established PC3-Luc tumors, Luc-imaging (BLI)” value (PC3-Luc tumor) was “not”. For the same molecule, the cell proliferation [1] was “did not affect”, the PSA protein expression (PSA) was “not” and the AR protein expression (AR) was “not”.

“5′-UUGCUAUGUGUCUGGGUUU(dT)(dT)-3′ (siRNA; RNA, 3' dTdT, backbone not given here; delivered in cationic liposome formulation SN) [b2M-siRNA]” was tested, and the b2M expression (b2M) was “inhibited”, the “cell attachment to collagen I (Col I)” value (C4-2B cells) was “no significant difference” and the “cell attachment to collagen IV (Col IV)” value (C4-2B cells) was “decreased attachment”. For the same molecule, the “cell attachment to fibronectin (FN)” value (C4-2B cells) was “no significant difference”, the “cell attachment to laminin (LM)” value (C4-2B cells) was “no significant difference” and the cell proliferation [1] was “inhibited”. The “growth of prostate cancer cells in vitro and tumor growth in bone on blocking β2M signaling” value ([1]; preliminary investigations) was “greatly attenuated”, the PSA protein expression (PSA) was “abolished” and the AR protein expression (AR) was “abolished”.

`C=C[C@@]1(C)CC(=O)[C@]2(O)[C@@]3(C)[C@@H](O)CCC(C)(C)[C@@H]3[C@H](O)[C@H](OC(C)=O)[C@@]2(C)O1` [FSK, forskolin] was tested, and the “steady-state level of OC mRNA, fold elevation” value (OC mRNA; C4-2B cells) was 7.8 fold, the “steady-state level of OC mRNA, fold elevation” value (OC mRNA; LNCaP cells) was 5.2 fold and the “level of BSP mRNA, fold increase” value (BSP mRNA; C4-2B cells) was 5.4 fold. For the same molecule, the “level of BSP mRNA, fold increase” value (BSP mRNA; LNCaP cells) was 3.2 fold.

In the case of `CCCCCCCCCCCCCC(=O)O[C@@H]1[C@@H](C)[C@@]2(O)[C@@H](C=C(CO)C[C@]3(O)C(=O)C(C)=C[C@@H]23)[C@@H]2C(C)(C)[C@]12OC(C)=O` [PMA, phorbol 12-myristate 13-acetate], the “hOC promoter activity, induction by PKC pathway activator” value (hOC promoter; PMA 10^−6 M) was “induced hOC promoter activity to a lesser extent”.
